Format in all cases: organism-based
The subject of data set [1] is Mus musculus. As to the kind of experiment: Toxicity in ip dosed mouse. As to conditions: in vivo.
The subject of data set [2] is Mus musculus. In words: Toxicity in ip dosed mouse assessed as transient hunching up to 2000 ug/kg. Particulars: in vivo, 2 mg/kg.
In data set [3] the test system is Mus musculus. As to the kind of experiment: Toxicity in ip dosed mouse assessed as transient lethargy up to 2000 ug/kg. As to conditions: in vivo, 2 mg/kg.

We go through six molecules from ChEMBL document CHEMBL1152408, “Characterization of a Dispiroketal Spirolide Subclass from Alexandrium ostenfeldii” (J Nat Prod, 2009).

The LD50 is the dose expected to kill half of the subjects tested. Low values mean a more toxic substance, high ones a less toxic substance. Turning to `C=C1CCCC2=NC[C@H](C)[C@@H](C)C[C@@]23CCC([C@@H]2C=C(C)C(=O)O2)=C(C)[C@@H]3/C=C(\C)[C@@H](O)C[C@H]2O[C@]3(CC[C@@]4(O[C@@H](CC[C@@]4(C)O)C1)O3)C[C@H]2C` [SPIROLIDE C], the LD50 in data set [1] was 6.9 µg/kg. Same read-out and setting: then `C=C1CCCC2=NC[C@H](C)[C@@H](C)C[C@@]23CCC([C@@H]2C=C(C)C(=O)O2)=C(C)[C@@H]3/C=C(\C)CC[C@@H]2CC[C@]3(COC[C@]4(O[C@H]1CC[C@@]4(C)O)[C@@H]3O)O2`, with 6.9 µg/kg. `C=C1CCCC2=NC[C@H](C)[C@@H](C)C[C@@]23CCC([C@@H]2C=C(C)C(=O)O2)=C(C)[C@@H]3/C=C(\C)[C@@H](O)C[C@H]2O[C@@]3(C[C@H]2C)O[C@@H](CC[C@@]3(C)O)C1` [Spirolide H]: the Activity entry in data set [2] and in data set [3] was “Non-toxic” throughout. The molecule `C=C1CCCC2=NC[C@H](C)[C@@H](C)C[C@@]23CCC([C@@H]2C=C(C)C(=O)O2)=C(C)[C@@H]3/C=C(\C)[C@@H](O)C[C@@H]2CC[C@@]3(CC[C@@]4(O[C@@H](CC[C@@]4(C)O)C1)O3)O2` gave an LD50 in data set [1] of 6.9 µg/kg. `C=C1CCCC2=NC[C@H](C)CC[C@@]23CCC([C@@H]2C=C(C)C(=O)O2)=C(C)[C@@H]3/C=C(\C)[C@@H](O)C[C@H]2O[C@]3(CC[C@@]4(O[C@@H](CC[C@@]4(C)O)C1)O3)C[C@H]2C` [SPIROLIDE A] returned an LD50 in data set [1] of 6.9 µg/kg. Molecule `C=C1CCCC2=NC[C@H](C)CC[C@@]23CCC([C@@H]2CC(C)C(=O)O2)=C(C)[C@@H]3/C=C(\C)[C@@H](O)C[C@H]2O[C@]3(CC[C@@]4(O[C@@H](CC[C@@]4(C)O)C1)O3)C[C@H]2C` (some centres not stated) [SPIROLIDE B] registered an LD50 in data set [1] of 6.9 µg/kg.
